“Also recorded” adds a separate entry of the source.
How the values were obtained:
[1] = tested on: spontaneous locomotor activity; assay: Taxol Induced Peripheral Neuropathy Model (pilot), Open Field testing; type: in vivo, Sprague-Dawley rats; details: 100 mg/kg po daily + Taxol, Day 11
[2] = tested on: paclitaxel-evoked mechano-allodynia and mechano-hyperalgesia; assay: Taxol Induced Peripheral Neuropathy Model (longer term study, Example 20); type: in vivo, Sprague-Dawley rats
Experimental: Paclitaxel (Taxol®, Bristol-Myers-Squibb; 6 mg/ml in a 50:50 mixture of Cremophor and ethanol) was diluted just before use with saline to a concentration of 2 mg/ml and injected IP in a volume of 1 ml/kg) on four alternate days (D0, D2, D4, and D6).
Adult male Sprague-Dawley rats (Harlan, Indianapolis, Ind.; Frederick, Md. breeding colony) were caged on sawdust bedding in groups of 3-4 with food and water available ad libitum and a 12:12 hr light-dark cycle.
Group 3 was treated with an equal volume of vehicle, daily, starting on D0 (the same day as the beginning of paclitaxel dosing).
The animals were habituated to the testing environment on three separate days and then three daily baseline sessions were given to measure the normal response rate to stimulation with von Frey hairs exerting 4 g or 15 g of pressure (4 gVFH and 15 gVFH). Normal rats rarely, if ever, withdraw from stimulation with 4 gVFH; thus, a post-paclitaxel increase in responding to this stimulus is indicative of mechano-allodynia. Normal rats withdraw from stimulation with 15 gVFH 10-20% of the time; thus an increased response frequency to this stimulus is indicative of mechano-hyperalgesia.
The animals were positioned beneath upturned plastic mouse cages atop an elevated platform with wire-mesh flooring. Each VFH was applied to the glabrous skin of the mid-heel and the presence or absence of a withdrawal response was noted. This was repeated 5 times on each hind paw and the animal's responses were summarized as a percent response score (e.g., 5 withdrawal responses to 15gVFH stimulation would yield a score of 50%). Behavior was assessed by an observer who was blind as to group assignment.
Behavioral tests for paclitaxel's effects began on day 13 (D13) and were repeated on D15, D17, D21, D24, D28, D31, D35 and D38. […] For these days the drug was given at 0900 h and behavioral tests began at 1300 h. Significant paclitaxel-evoked mechano-allodynia and mechano-hyperalgesia were expected to develop 10-14 days after the last injection of paclitaxel.

[3] = tested on: Taxol®-induced mechanical allodynia; assay: Taxol Induced Peripheral Neuropathy Model (pilot), Von Frey testing; type: in vivo, Sprague-Dawley rats; details: 100 mg/kg po daily for 12 days with Taxol 2 mg/kg i.p. days 1, 3, 5, 7; Day 12
Experimental: In addition, the compound's effects on spontaneous locomotor activity was measured.
The animals were housed in polycarbonate plastic cages, 2 animals per cage, at a temperature of 18-26° C., 30-70% humidity, 12-hour light/dark cycle, with food and water available ad libityum.
On days 1, 3, 5, and 7, the rats received an ip (intraperitoneal) injection of Taxol® (2 mg/kg).
Two behavioral tests were performed: measurement of tactile sensitivity and spontaneous locomotor activity. At baseline and on Days 5 and 12 post-Taxol® injection, the animals underwent Von Frey testing for mechanical allodynia (according to the procedure as described in Chaplan, S R, Bach, F W, Pogrel, J W, Chung, J M, Yaksh, T L. Quantitative assessment of tactile allodynia in the rat paw. J Neurosci Meth, 53:55-63, 1994). Tactile sensitivity (i.e. mechanical allodynia) was measured using calibrated filaments touched to the plantar surface of the affected limb to determine paw withdrawal threshold. Briefly, the rats were placed in a Plexiglas cage with a wire mesh bottom and allowed to acclimate for 10 minutes. Once the animals settled, the plantar surface of the right hind paw was touched with a 2.0 g von Frey filament. […] Data were analyzed using two-way ANOVA, one-way ANOVA and Dunnett's test, with statistical significance at p<0.05.

[4] = tested on: formalin-induced inflammatory-mediated pain response (licking of injected hind-paw); assay: Mouse Formalin Assay (NINDS); type: in vivo, mice
Experimental: The mouse formalin test is an acute and chronic model for testing the ability of a test compound for the treatment of pain.
In the Mouse Formalin Test, 0.5% formalin was injected s.c. into the plantar region of the hind-paw of adult male mice to induce an inflammatory-mediated pain response. Pain was expressed as licking of the injected area in a bi-modal manner—acute and chronic phase. The acute phase occurred immediately and lasted approximately […] post-injection, representing direct stimulation of pain fibers. Licking behavior resumes approximately 10 mins later (˜20 min post injection) and lasted 10-15 min, representing the chronic phase hypothesized to be caused by the release of inflammatory mediators such as cytokines.
Activity in the acute phase of the formalin test is an indicator of acute pain believed to correlate with peripheral pain pathways.
Compound #8 was evaluated in the Mouse Formalin Test as described above. […] For the acute phase the decrease was 52% from control (p<0.01), while for the chronic phase the decrease was 43% from control (p<0.01).

[5] = both 60 mg/kg and 120 mg/kg PO daily for 20 days from D0, paclitaxel 2 mg/kg IP D0, D2, D4, D6
[6] = 110 mg/kg, i.p. 15 min prior to formalin injection, p<0.01

In the case of `NS(=O)(=O)NC[C@H]1COc2cc(Cl)ccc2O1` [Compound #8, (2S)-(−)-N-(6-Chloro-2,3-dihydro-benzo[1,4]dioxin-2-ylmethyl)-sulfamide], the “vertical rearing (Open Field)” value ([1]; p<0.05) is reported as “decreased vertical rearing compared to Taxol® alone”, the “horizontal movement (Open Field)” value ([1]; vs Taxol alone) is reported as “no difference between treatment groups” and the “continuation of suppressive effect after the last injection” value ([2]; 60 mg/kg and 120 mg/kg PO daily) is reported as “approximately 11 days”. For the same molecule, the side-effects ([2]; 60 mg/kg and 120 mg/kg PO daily for 20 days) was “no apparent side-effects”, the “development of mechano-allodynia (4 gVFH test)” value [2, 5] was “suppressed the development of mechano-allodynia and mechano-hyperalgesia” and the “development of mechano-hyperalgesia (15 gVFH test)” value [2, 5] was “suppressed the development of mechano-allodynia and mechano-hyperalgesia”. The “effect on Taxol-induced mechanical allodynia” value [3] was “appeared to potentiate the pain response compared to Taxol® alone; however, this difference was not statistically significant; also recorded: ineffective in preventing the allodynia”, the “chronic phase decrease from control” value ([4]; 60 mg/kg i.p., p<0.01) was 40% and the “acute phase decrease from control” value ([4]; 60 mg/kg i.p., p<0.05) was 30%. For the same molecule, the “acute phase decrease from control” value [4, 6] was 52% and the “chronic phase decrease from control” value [4, 6] was 43%.

From patent US8716231B2, “Use of benzo-fused heterocycle sulfamide derivatives for the treatment of pain” (Janssen Pharmaceutica NV, priority 2005, dated 2014)
